According to ChEMBL document CHEMBL5143570, “Development of naringenin-O-carbamate derivatives as multi-target-directed liagnds for the treatment of Alzheimer's disease” (Bioorg Med Chem Lett, 2022):
Active and inactive are the calls of the source. No cut-off for these calls is given here.

How the values were obtained:
[1] = Antioxidant activity assessed as trolox equivalent of ORAC radical scavenging activity by ORAC-FL assay; format: functional
[2] = molecular target: T1, Acetylcholinesterase (Rattus norvegicus, UniProt P37136); test: Inhibition of rat cortex AChE using acetylthiocholine as substrate incubated for 15 mins by DTNB reagent based Ellman's method; format: tissue-based
T1 sequence (P37136 whole entry): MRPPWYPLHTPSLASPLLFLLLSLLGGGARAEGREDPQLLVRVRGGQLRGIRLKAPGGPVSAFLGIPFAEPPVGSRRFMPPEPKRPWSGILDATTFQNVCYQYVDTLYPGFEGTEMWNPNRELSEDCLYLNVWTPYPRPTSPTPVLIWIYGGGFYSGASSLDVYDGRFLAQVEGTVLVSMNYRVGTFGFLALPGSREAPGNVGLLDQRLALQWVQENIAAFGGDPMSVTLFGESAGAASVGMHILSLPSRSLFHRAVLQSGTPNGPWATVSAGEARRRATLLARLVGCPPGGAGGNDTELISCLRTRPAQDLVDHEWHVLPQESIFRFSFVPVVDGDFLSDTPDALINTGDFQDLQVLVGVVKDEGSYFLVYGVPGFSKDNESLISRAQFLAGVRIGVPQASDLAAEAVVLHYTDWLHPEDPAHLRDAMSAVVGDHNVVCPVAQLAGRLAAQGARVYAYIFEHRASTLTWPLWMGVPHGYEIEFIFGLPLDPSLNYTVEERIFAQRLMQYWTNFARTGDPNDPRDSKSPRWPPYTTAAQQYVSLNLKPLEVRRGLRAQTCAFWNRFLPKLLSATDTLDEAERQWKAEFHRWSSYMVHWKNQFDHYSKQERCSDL

[3] = molecular target: Butyrylcholinesterase (Rattus norvegicus, UniProt Q9JKC1); test: Inhibition of rat serum Butyrylcholine esterase using butyrylthiocholine as substrate incubated for 15 mins by DTNB reagent based Ellman's method; format: cell-free
[4] = species on record: Homo sapiens; test: Selectivity index, ratio of IC50 for inhibition of human serum BuChE to IC50 for inhibition of human erythrocyte AChE
[5] = molecular target: T2, Acetylcholinesterase (Homo sapiens, UniProt P22303); test: Inhibition of human erythrocyte AChE using acetylthiocholine as substrate incubated for 15 mins by DTNB reagent based Ellman's method; format: cell-based
[6] = species on record: Rattus norvegicus; test: Selectivity index, ratio of IC50 for inhibition of rat serum butyrylcholine esterase to IC50 for inhibition of rat cortex AChE
[7] = molecular target: Cholinesterase (Homo sapiens, UniProt P06276); test: Inhibition of human serum BuChE using butyrylthiocholine as substrate incubated for 15 mins by DTNB reagent based Ellman's method; format: cell-free
[8] = Effect on tau protein expression in pRK5-GFP-Tau plasmid transfected mouse HT-22 cells assessed as reduction in fluorescence intensity at 20 uM incubated for 24 hrs by fluorescence microscopic analysis (reference value: 36.8); format: functional
[9] = molecular target: Amyloid-beta precursor protein (Homo sapiens) (UniProt P05067); test: Inhibition of amyloid beta (1 to 42 ) (unknown origin) self-induced aggregation at 25 uM by thioflavin-T fluorescence method relative to control
[10] = Effect on tau protein expression in pRK5-GFP-Tau P301L plasmid transfected mouse HT-22 cells assessed as reduction in fluorescence intensity at 20 uM by fluorescence microscopic analysis (reference value: 35.0); format: functional
[11] = Effect on tau protein expression in pRK5-GFP-Tau plasmid transfected mouse HT-22 cells assessed as reduction in fluorescence intensity at 10 uM incubated for 24 hrs by fluorescence microscopic analysis (reference value: 36.8); format: functional
[12] = tested on: PC-12; test: Cytotoxicity against rat PC-12 cells assessed as reduction in cell viability measured upto 40 uM incubated for 72 hrs by MTT assay; format: toxicity, cell-based; details: pc-12, 72 h
[13] = tested on: HT-22; test: Effect on tau protein expression in pRK5-GFP-Tau plasmid transfected mouse HT-22 cells assessed as fluorescence intensity by measuring decrease in GFP level at 5 to 20 uM incubated for 24 hrs by western blot analysis; format: functional, cell-based; details: dose 5-20 µM
[14] = tested on: HT-22; test: Effect on APP protein expression in pEGFP-N1-APP plasmid transfected mouse HT-22 cells assessed as fluorescence intensity by measuring decrease in GFP level incubated for 24 hrs by western blot analysis; format: functional, cell-based; details: dose 5-20 µM, DDE = dose-dependent effect
[15] = Effect on tau protein expression in pRK5-GFP-Tau plasmid transfected mouse HT-22 cells assessed as reduction in fluorescence intensity at 5 uM incubated for 24 hrs by fluorescence microscopic analysis (reference value: 36.8); format: functional
[16] = Effect on tau protein expression in pRK5-GFP-Tau P301L plasmid transfected mouse HT-22 cells assessed as reduction in fluorescence intensity at 10 uM by fluorescence microscopic analysis (reference value: 35.0); format: functional
[17] = molecular target: T2, Acetylcholinesterase; test: Pseudo-irreversible inhibition of human AChE assessed as restoration of enzyme activity at 0.1 time of IC50 concentration incubated for 120 mins by dilution method relative to control; design: scale not given: the % may be the effect or the level left
[18] = molecular target: Amyloid-beta precursor protein (Homo sapiens) (UniProt P05067); test: Inhibition of amyloid beta (1 to 42) (unknown origin) self-induced fibril formation at 25 uM incubated for 24 hrs by transmission electron microscopic analysis
[19] = Effect on APP protein expression in pEGFP-N1-APP plasmid transfected mouse HT-22 cells assessed as decrease in fluorescence intensity at 5 uM incubated for 24 hrs by fluorescence microscopic analysis (reference value: 30.7); format: functional
[20] = tested on: PC-12; test: Neuroprotective activity against H2O2-induced cytotoxicity in rat PC-12 cells assessed as increase in cell viability at 5 uM by MTT assay relative to control; format: functional
[21] = Effect on APP protein expression in pEGFP-N1-APP plasmid transfected mouse HT-22 cells assessed as decrease in fluorescence intensity at 20 uM incubated for 24 hrs by fluorescence microscopic analysis (reference value: 30.7); format: functional
[22] = tested on: PC-12; test: Neuroprotective activity against H2O2-induced cytotoxicity in rat PC-12 cells assessed as increase in cell viability at 10 uM by MTT assay relative to control; format: functional
[23] = Cytotoxicity against mouse HT-22 cells assessed as reduction in cell viability by MTT assay; format: toxicity, cell-based
[24] = Effect on APP protein expression in pEGFP-N1-APP plasmid transfected mouse HT-22 cells assessed as decrease in fluorescence intensity at 10 uM incubated for 24 hrs by fluorescence microscopic analysis (reference value: 30.7); format: functional
[25] = Effect on tau protein expression in pRK5-GFP-Tau P301L plasmid transfected mouse HT-22 cells assessed as reduction in fluorescence intensity at 5 uM by fluorescence microscopic analysis (reference value: 35.0); format: functional
[26] = tested on: PC-12; test: Neuroprotective activity against H2O2-induced cytotoxicity in rat PC-12 cells assessed as increase in cell viability at 100 uM by MTT assay relative to control; format: functional, cell-based

Butyrylcholinesterase, sequence (Q9JKC1 whole entry): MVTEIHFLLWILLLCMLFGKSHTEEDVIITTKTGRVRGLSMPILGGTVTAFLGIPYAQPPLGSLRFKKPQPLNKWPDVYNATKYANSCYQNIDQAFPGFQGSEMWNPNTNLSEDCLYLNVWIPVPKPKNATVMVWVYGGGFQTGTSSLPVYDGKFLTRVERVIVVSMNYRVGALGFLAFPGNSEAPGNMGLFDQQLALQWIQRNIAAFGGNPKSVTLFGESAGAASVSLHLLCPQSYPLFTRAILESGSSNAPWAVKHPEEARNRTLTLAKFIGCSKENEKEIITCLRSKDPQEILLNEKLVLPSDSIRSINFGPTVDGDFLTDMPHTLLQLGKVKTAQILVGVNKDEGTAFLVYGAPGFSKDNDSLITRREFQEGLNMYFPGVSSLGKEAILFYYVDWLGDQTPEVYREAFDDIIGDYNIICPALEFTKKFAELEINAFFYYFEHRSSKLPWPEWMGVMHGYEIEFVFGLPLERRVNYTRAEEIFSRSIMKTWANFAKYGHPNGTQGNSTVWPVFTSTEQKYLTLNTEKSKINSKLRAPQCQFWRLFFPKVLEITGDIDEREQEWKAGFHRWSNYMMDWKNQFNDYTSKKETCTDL
T2 sequence (P22303 whole entry): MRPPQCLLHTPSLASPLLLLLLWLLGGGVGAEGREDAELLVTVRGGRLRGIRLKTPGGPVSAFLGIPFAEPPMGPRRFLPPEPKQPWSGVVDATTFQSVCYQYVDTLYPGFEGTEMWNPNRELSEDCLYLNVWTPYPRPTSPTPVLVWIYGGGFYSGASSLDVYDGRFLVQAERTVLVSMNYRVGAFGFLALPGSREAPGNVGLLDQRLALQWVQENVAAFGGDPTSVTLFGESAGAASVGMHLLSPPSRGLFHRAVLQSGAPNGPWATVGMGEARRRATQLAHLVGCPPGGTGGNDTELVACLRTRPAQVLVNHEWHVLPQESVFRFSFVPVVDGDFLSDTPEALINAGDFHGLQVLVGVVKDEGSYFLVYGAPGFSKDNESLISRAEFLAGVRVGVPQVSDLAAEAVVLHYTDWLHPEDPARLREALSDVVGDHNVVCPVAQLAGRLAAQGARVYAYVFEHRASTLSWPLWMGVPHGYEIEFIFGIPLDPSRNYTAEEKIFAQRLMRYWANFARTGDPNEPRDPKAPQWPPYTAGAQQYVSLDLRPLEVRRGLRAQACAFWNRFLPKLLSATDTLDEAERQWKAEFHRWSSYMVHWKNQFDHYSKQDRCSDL
Cholinesterase, sequence (P06276 whole entry): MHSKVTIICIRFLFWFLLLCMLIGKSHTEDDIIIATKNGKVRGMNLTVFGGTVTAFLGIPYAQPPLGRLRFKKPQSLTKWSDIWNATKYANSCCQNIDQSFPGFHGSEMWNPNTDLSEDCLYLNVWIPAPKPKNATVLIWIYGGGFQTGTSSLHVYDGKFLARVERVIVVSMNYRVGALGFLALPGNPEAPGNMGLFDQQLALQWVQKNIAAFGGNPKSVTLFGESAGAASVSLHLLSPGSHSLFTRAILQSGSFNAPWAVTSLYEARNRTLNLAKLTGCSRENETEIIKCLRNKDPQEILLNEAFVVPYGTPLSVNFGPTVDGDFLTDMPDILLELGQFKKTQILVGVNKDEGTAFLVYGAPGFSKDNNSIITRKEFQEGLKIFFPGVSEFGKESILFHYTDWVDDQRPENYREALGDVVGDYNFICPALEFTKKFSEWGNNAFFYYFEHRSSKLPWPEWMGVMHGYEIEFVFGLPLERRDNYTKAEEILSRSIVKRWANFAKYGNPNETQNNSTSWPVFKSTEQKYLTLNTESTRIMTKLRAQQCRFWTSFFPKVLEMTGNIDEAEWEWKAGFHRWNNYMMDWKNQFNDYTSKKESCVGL
Amyloid-beta precursor protein (Homo sapiens), sequence (P05067 whole entry): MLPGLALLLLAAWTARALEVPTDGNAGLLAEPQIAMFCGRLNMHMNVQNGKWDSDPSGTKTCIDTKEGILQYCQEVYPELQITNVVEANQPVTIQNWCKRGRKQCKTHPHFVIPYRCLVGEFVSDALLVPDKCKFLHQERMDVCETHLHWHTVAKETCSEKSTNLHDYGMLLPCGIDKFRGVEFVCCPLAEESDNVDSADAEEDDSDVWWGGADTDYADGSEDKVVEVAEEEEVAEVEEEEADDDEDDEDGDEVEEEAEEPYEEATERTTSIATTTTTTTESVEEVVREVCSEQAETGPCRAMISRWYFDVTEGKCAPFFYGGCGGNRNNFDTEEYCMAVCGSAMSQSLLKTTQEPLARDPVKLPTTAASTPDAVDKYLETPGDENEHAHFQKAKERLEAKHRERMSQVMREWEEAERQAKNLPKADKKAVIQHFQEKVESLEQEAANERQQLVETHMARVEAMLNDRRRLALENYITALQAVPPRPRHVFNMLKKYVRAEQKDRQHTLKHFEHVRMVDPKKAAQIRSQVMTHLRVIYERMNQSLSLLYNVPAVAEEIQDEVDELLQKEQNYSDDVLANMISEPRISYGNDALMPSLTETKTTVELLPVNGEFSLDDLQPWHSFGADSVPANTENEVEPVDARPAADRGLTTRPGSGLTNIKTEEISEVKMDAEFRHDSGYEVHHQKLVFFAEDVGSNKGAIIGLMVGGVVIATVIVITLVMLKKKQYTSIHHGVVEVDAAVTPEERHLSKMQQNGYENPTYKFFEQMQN

O=c1c(-c2ccc(O)cc2)coc2cc(O)cc(O)c12 [GENISTEIN]
Activity [1]: 6.2
IC50 [2]: > 50 µM
IC50 [3]: > 50 µM

O=c1cc(-c2ccc(O)cc2)oc2cc(O)cc(O)c12 [APIGENIN]
Activity [1]: 5.5
IC50 [2]: > 50 µM
IC50 [3]: > 50 µM

CCN(C)C(=O)Oc1ccc(-c2cc(=O)c3c(O)cc(OC(=O)N(C)CC)cc3o2)cc1
Ratio IC50 [4]: 2.4
Activity [1]: 1.3
IC50 [2]: 5.7 µM
IC50 [3]: 15.6 µM
IC50 [5]: 7.9 µM
Ratio IC50 [6]: 2.7
IC50 [7]: 18.7 µM

CON(C)C(=O)Oc1ccc(C2CC(=O)c3c(O)cc(OC(=O)N(C)OC)cc3O2)cc1 (stereo not given)
Activity [1]: 1.2
IC50 [2]: 9.9 µM
IC50 [3]: 18.1 µM
Ratio IC50 [6]: 1.8

O=C1CC(c2ccc(OC(=O)N(c3ccccc3)c3ccccc3)cc2)Oc2cc(OC(=O)N(c3ccccc3)c3ccccc3)cc(O)c21 (stereo not given)
Activity [1]: 1.1
IC50 [2]: 18.2 µM
IC50 [3]: 25.2 µM
Ratio IC50 [6]: 1.4

CCN(C)C(=O)Oc1cc(O)c2c(c1)OC(c1ccc(O)cc1)CC2=O (stereo not given)
Activity [1]: 2.7
IC50 [2]: 11.6 µM
IC50 [3]: 28.2 µM
Ratio IC50 [6]: 2.4

CCN(C)C(=O)Oc1ccc(C2CC(=O)c3c(OC(=O)N(C)CC)cc(OC(=O)N(C)CC)cc3O2)cc1 (stereo not given)
Flu intensity [8]: 6.48
inhibition [9]: 42.1%
Flu intensity [10]: 16
Flu intensity [11]: 20.7
Activity [1]: 0.2
Activity [12]: Non-Toxic
IC50 [2]: 6.7 µM
Activity [13]: Active
Activity [14]: Dde
Flu intensity [15]: 23.7
Flu intensity [16]: 17.6
IC50 [3]: 20.2 µM
IC50 [5]: 10.6 µM
Activity [17]: 75.9%
inhibition [18]: Active
Flu intensity [19]: 22.3
Activity [20]: 59.3%
IC50 [7]: 24.5 µM
Flu intensity [21]: 20.7
Activity [22]: 64.1%
IC50 [23]: 215 µM
Flu intensity [24]: 22.1
Flu intensity [25]: 18.7

O=C1CC(c2ccc(OC(=O)N3CCCC3)cc2)Oc2cc(OC(=O)N3CCCC3)cc(O)c21 (stereo not given)
Activity [1]: 1.1
IC50 [2]: 14.5 µM
IC50 [3]: 19.8 µM
Ratio IC50 [6]: 1.4

O=C1CC(c2ccc(O)cc2)Oc2cc(O)cc(O)c21 (stereo not given)
Activity [1]: 5.1
IC50 [2]: > 50 µM
IC50 [3]: > 50 µM

CCN(C)C(=O)Oc1cccc([C@H](C)N(C)C)c1
Activity [17]: 76.3%

CN(C)C(=O)Oc1ccc(C2CC(=O)c3c(O)cc(OC(=O)N(C)C)cc3O2)cc1 (stereo not given)
Activity [1]: 0.9
IC50 [2]: 14.2 µM
IC50 [3]: 26.5 µM

CON(C)C(=O)Oc1ccc(-c2coc3cc(OC(=O)N(C)OC)cc(O)c3c2=O)cc1
Activity [1]: 1
IC50 [2]: 13.5 µM
IC50 [3]: 27.1 µM
Ratio IC50 [6]: 2

CCN(C)C(=O)Oc1ccc(-c2coc3cc(OC(=O)N(C)CC)cc(OC(=O)N(C)CC)c3c2=O)cc1
Activity [1]: 0.3
IC50 [2]: 8.7 µM
IC50 [3]: 16.9 µM
Ratio IC50 [6]: 1.9

VITAMIN E
Activity [26]: 67.3%

CCN(C)C(=O)Oc1ccc(-c2cc(=O)c3c(OC(=O)N(C)CC)cc(OC(=O)N(C)CC)cc3o2)cc1
Ratio IC50 [4]: 1.7
Activity [1]: 0.2
IC50 [2]: 6.9 µM
IC50 [3]: 14.3 µM
IC50 [5]: 12.3 µM
Ratio IC50 [6]: 2.1
IC50 [7]: 20.6 µM

CCN(C)C(=O)Oc1ccc(-c2coc3cc(OC(=O)N(C)CC)cc(O)c3c2=O)cc1
Activity [1]: 1.2
IC50 [2]: 11.2 µM
IC50 [3]: 29.3 µM
Ratio IC50 [6]: 2.6

CON(C)C(=O)Oc1ccc(-c2cc(=O)c3c(O)cc(OC(=O)N(C)OC)cc3o2)cc1
Activity [1]: 1.1
IC50 [2]: 9.3 µM
IC50 [3]: 19.7 µM
Ratio IC50 [6]: 2.1

O=C1CC(c2ccc(OC(=O)N3CCOCC3)cc2)Oc2cc(OC(=O)N3CCOCC3)cc(O)c21 (stereo not given)
Activity [1]: 1
IC50 [2]: 11.3 µM
IC50 [3]: 23.6 µM
Ratio IC50 [6]: 2.1

CCN(CC)C(=O)Oc1cc(O)c2c(c1)OC(c1ccc(O)cc1)CC2=O (stereo not given)
Activity [1]: 2.5
IC50 [2]: 15.1 µM
IC50 [3]: 26.7 µM
Ratio IC50 [6]: 1.8

CCN(CC)C(=O)Oc1ccc(C2CC(=O)c3c(O)cc(OC(=O)N(CC)CC)cc3O2)cc1 (stereo not given)
Activity [1]: 1.1
IC50 [2]: 10.7 µM
IC50 [3]: 22.4 µM
Ratio IC50 [6]: 2.1
